The values that follow come from publication PMC5597618, “Identification and characterization of the novel reversible and selective cathepsin X inhibitors” (Scientific Reports, 2017).

Molecules are shown by their SMILES.

One assay has as its target cathepsin X (Homo sapiens, UniProt Q9UBR2). Description: Determination of Ki values and inhibition mechanism against cathepsin X (Abz-FEK(Dnp)-OH substrate). The settings on record: second group. Details: made in house; host or cells: Pichia pastoris. The assay is classed as biochemical. The procedure:
Recombinant or native human cathepsins were used: recombinant cathepsin X and cathepsin S were expressed in Pichia pastoris, recombinant cathepsins B and L in E. coli, [43], native cathepsin H was isolated from human liver. Assay buffers for determining activities of cathepsins X and L consisted of 100 mM sodium acetate buffer, pH 5.5, for cathepsins H, S and B (endopeptidase activity) of 100 mM phosphate buffer pH 6.8, 6.5 and 6.0, respectively and for cathepsin B (exopeptidase activity) of 60 mM acetate buffer pH 5.0. Each assay buffer contained 0.01% Triton X-100 to prevent false positive inhibition due to aggregation of compounds[45], 5 mM cysteine, 1.5 mM EDTA and 0.1% PEG 8000. Enzymes were activated at 37 °C for 5 min before the assays.
Ki was determined by measuring the initial rate of hydrolysis at three different substrate concentrations (Supplementary Table S2) in the presence of seven different compound concentrations (0, 20, 40, 60, 80, 100 and 200 μM). 90 μL of the activated cathepsin was added to a black 96-well plate with 5 μL of the substrate and 5 μL of the compound. Formation of the fluorescent degradation product was monitored continuously at 460 nm ± 10 nm with excitation at 380 nm ± 20 nm (for AMC substrates) and, as noted above for Abz substrates, at 37 °C. All measurements were performed twice and in duplicate. The resulting data were analyzed by non-linear regression using the software SigmaPlot®, Enzyme Kinetics Module™ 1.3 and were fitted to the equation v = v max [S]/([S] (1 + [I]/αK i ) + K m (1 + [I]/K i )) (first group of compounds). For Ki determination against cathepsin X for the compounds from the second group, progress curves in the absence and presence of each putative inhibitor were fitted to the reaction mechanism presented in Fig. 3b. In this case the resulting data as well as reactivation curves were fitted to the equation system presented in Fig. 3c using ENZO application. For calculation of kinetic parameters from reaction progress curves the fluorescence coefficient for conversion of arbitrary fluorescence units to concentration was first determined. The fluorescence coefficient was calculated as the slope from the plot of initial substrate concentration vs. height of the plateau of the progress curve after complete hydrolysis of increasing concentrations of substrate, using linear regression.
Supplementary Table S2. Substrates used for the various cathepsins and their concentrations […]
Enzyme Substrate Concentration (µM) Reference/Company cathepsin X Abz-FEK(Dnp)-OH 3.25, 6.5, 13 Puzer et al.3 cathepsin B - endopept. Z-RR-AMC 60, 180, 360 Bachem cathepsin B - exopept. Abz-GIVRAK(Dnp)-OH 1, 3, 6 Bachem cathepsin S Z-VVR-AMC 0.5, 1, 1.5 Biomol cathepsin L Z-FR-AMC 0.5, 1, 4 Bachem cathepsin H Z-R-AMC 20, 80, 160 Biomol […]

The subject of assay [1] is PC-12 cells. Description: Neurite outgrowth assay. The assay is classed as cell-based, rat. The settings on record: 10 µM; 48 h; vs DMSO control. The procedure: Human prostate cancer cell line PC-3 cells (obtained from ATCC, Manassas, USA; ATCC Number: CRL-1435) were cultured in F-12 (Gibco) and Advanced DMEM (Gibco) (1:1) with 10% FBS, 1% penicillin/streptomycin and 1% L-glutamine. Rat pheochromocytoma PC-12 cells (obtained from ATCC, Manassas, USA; ATCC Number: CRL-1721) were cultured in Advanced DMEM (Gibco) with 5% FBS, 10% heat-inactivated horse serum, 1% penicillin/streptomycin and 1% L-glutamine.
PC-12 cells were seeded in 96-well plates (4 × 10^4/well) coated with poly-L-lysine. Next day, the cells were treated with compounds (10 µM) in serum-free medium, and neurite outgrowth was measured after 48 h using Neurite Outgrowth Staining Kit (Molecular Probes), in accordance with the manufacturer’s instructions. Fluorescence intensity was measured at 525 nm with excitation at 483 nm for cell viability indicator and at 567 nm with excitation at 554 nm for cell membrane indicator. Results, expressing increased neurite outgrowth, were normalized to cells treated with DMSO.

The subject of assay [2] is PC-12 cells. In words: Determination of F-actin content of cells (phalloidin-TRITC fluorescence microscopy). The assay is classed as cell-based, rat. The settings on record: 10 µM, 2 h. The protocol:
For the fluorescence staining of F-actin, PC-12 cells were cultured on glass coverslips coated with poly-L-lysine (4 × 10^4/ml). Next day, cells were treated with compounds (10 µM) in serum-free medium for 2 h. The cells were then fixed in 5% formalin (w/v) in PBS (pH 7.4) for 5 min and permeabilized with 0.1% Triton X-100 in PBS for 3 min. After washing with PBS, cells were incubated with phalloidin-TRITC (500 ng/mL) (Sigma) in 20 mM TrisHCl (pH 7.4) at 37 °C for 30 min. After additional washing with PBS, the Prolong Antifade kit was used for mounting the coverslips on glass slides. Fluorescence microscopy was performed using an Olympus IX 81 motorized inverted microscope.

cathepsin X, sequence (Q9UBR2 62-303): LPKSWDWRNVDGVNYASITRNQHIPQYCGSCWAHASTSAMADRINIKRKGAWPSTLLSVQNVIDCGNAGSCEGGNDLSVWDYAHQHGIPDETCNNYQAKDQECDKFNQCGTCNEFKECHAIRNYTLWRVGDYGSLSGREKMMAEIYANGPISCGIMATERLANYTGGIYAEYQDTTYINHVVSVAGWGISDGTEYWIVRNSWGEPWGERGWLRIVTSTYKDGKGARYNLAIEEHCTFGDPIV

Usually Ki stands for the dissociation constant of the complex between target and ligand, obtained from inhibition or displacement. A lower Ki goes with higher affinity. With `CC(C)n1cnnc1SCC(=O)c1ccc2c(c1)OCCO2` [Compound 22, 1-(2,3-Dihydrobenzo[b][1,4]dioxin-6-yl)-2-((4-isopropyl-4H-1,2,4-triazol-3-yl)thio)ethan-1-one], the Inhibition mechanism result at cathepsin X (ENZO) was “competitive”. The Ki at cathepsin X (progress curve analysis with ENZO) stood at 2450 ± 50 nM. Also, the “increase of neurite outgrowth” value with PC-12 cells [1] was 85%. For the same molecule, the actin polymerization result in the assay on PC-12 cells [2] is “increased actin polymerization”.
